Data: the RepoRT retention time repository

Assay: Waters ACQUITY UPLC BEH C18, 100 × 2.1 mm, 1.7 µm, 40 °C, 0.3 to 0.4 mL/min, estimated dead time 0.63 min; A: water + 0.1% formic acid; B: methanol + 0.1% formic acid; gradient (min/%B) 0/0.5 0.1/0.5 10/80 10.1/99.5 12/99.5
Conditions: stereoisomer not certain

Compound | LC retention time [min]
COc1cc2c(cc1O)CC1c3c(cc(O)c(OC)c3-2)CCN1C (stereo not drawn) | 3.35
COCC12CN(C)C3C4C(OC)C1C3(C(OC)CC2O)C1CC2(O)C(OC)C(O)C4(OC(C)=O)C1C2OC(=O)c1ccccc1 (stereo not drawn) | 5.61
CCCCCC=CCC(O)C(O)CCCCCCCC(=O)O (stereo not drawn) | 8.54
COc1ccc2cc1Oc1ccc(cc1)CC1c3cc(c(OC)cc3CCN1C)Oc1c(OC)c(OC)c(OC)c3c1C(C2)N(C)CC3 (stereo not drawn) | 4.41
C=C1C2CC3(C1O)C1CC4C5(C)CCC(O)C4(C1N(CC)C5)C3CC2O (stereo not drawn) | 3.05
CCC12C=CCN3CCC4(C(=C(C(=O)OC)C1)Nc1ccccc14)C32 (stereo not drawn) | 5.2
COC(=O)C12CC3CC(C(C)O)C1N(CCc1c2[nH]c2ccc(OC)cc12)C3 (stereo not drawn) | 4.61
COc1c(CC=C(C)C)c(O)cc2oc(=O)c(-c3ccc(O)cc3O)cc12 | 7.01
CC(C)C(N)C(=O)NC(C(=O)O)C(C)C (stereo not drawn) | 2.15
Cc1cc2[nH]c(=O)c(=O)n(CC(O)C(O)C(O)CO)c2cc1C (stereo not drawn) | 3.3
O=c1cc(-c2ccccc2)oc2ccccc12 | 7.75
O=C1CC(c2ccccc2)Oc2ccccc21 (stereo not drawn) | 8.5
COc1c2c(cc3c1OCO3)CCN(C)C2 | 3.33
C=CC1CN2CCC1CC2C(O)c1ccnc2ccc(OC)cc12 (stereo not drawn) | 3.31
CCC1CN2CCc3cc(OC)c(OC)cc3C2CC1CC1NCCc2cc(O)c(OC)cc21 (stereo not drawn) | 2.98
COc1ccc2c(c[n+](C)c3c4cc5c(cc4ccc23)OCO5)c1OC | 5.3
O=C1C(O)Oc2ccccc2N1O (stereo not drawn) | 1.83
CCCCc1ccc(C(=O)O)nc1 | 2.79
COc1cc(C=Cc2ccc(O)cc2)cc(OC)c1 | 8.02

Compound | LC retention time [min]
CCCCCC=CC=CC(=O)CCCCCCCC(=O)O | 10.2
O=C1CC(c2ccccc2)Oc2ccc(O)cc21 (stereo not drawn) | 7.17
Oc1cc(O)c2c(c1)OC(c1cc(O)c(O)c(O)c1)C(O)C2 (stereo not drawn) | 2.49
CCC(C)C(NC(=O)Cc1c[nH]c2ccccc12)C(=O)O (stereo not drawn) | 6.14
COc1ccc2c(c1O)-c1c(OC)c(OC)cc3c1C(C2)N(C)CC3 (stereo not drawn) | 3.92
CC1C(=O)OC2C(O)C34C5OC(=O)C3(OC3OC(=O)C(O)C34C(C(C)(C)C)C5O)C12O (stereo not drawn) | 4.33
O=c1c2ccccc2nc2n1CCC2 | 3.94
COCC12CCC(OC)C34C5CC6(O)C(OC)C(O)C(OC(C)=O)(C5C6OC(=O)c5ccccc5)C(C(OC)C13)C4N(C)C2 (stereo not drawn) | 5.97
O=C(Cc1c[nH]c2ccccc12)NC(Cc1ccccc1)C(=O)O (stereo not drawn) | 6.34
O=c1cc(-c2ccc(O)cc2)oc2cc(O)cc(O)c12 | 5.89
CCCCCC(O)CC(=O)CCc1ccc(O)c(OC)c1 (stereo not drawn) | 7.45
CCN(CC)CCOC(=O)c1ccc(N)cc1 | 2.75
CCC1C(=O)OCc2c1cc1n(c2=O)Cc2cc3ccccc3nc2-1 (stereo not drawn) | 5.77
CC(C)=CCc1cc(C2CC(=O)c3c(O)cc(O)c(CC=C(C)C)c3O2)cc(O)c1O (stereo not drawn) | 9.09
CC(C)=CCc1cc(C2CC(=O)c3c(O)cc(O)cc3O2)cc(O)c1O (stereo not drawn) | 7.75
CCN1CC2(COC)C(O)CC(OC)C34C5CC6(O)C(OC)C(O)C(OC(C)=O)(C5C6OC(=O)c5ccccc5)C(C(OC)C23)C14 (stereo not drawn) | 5.97
NC(CCCCNC(=O)C=Cc1ccc(O)c(O)c1)C(=O)O (stereo not drawn) | 2.61
NC(Cc1ccc(O)cc1)C(=O)O (stereo not drawn) | 1.79

Now from value to molecule:

LC retention time [min] | Compound
1.74 | CS(=O)CCCCC(=NOS(=O)(=O)O)SC1OC(CO)C(O)C(O)C1O (stereo not drawn)
3.81 | CC(CCC1C(CO)=CC(=O)CC1(C)C)OC1OC(CO)C(O)C(O)C1O (stereo not drawn)
8.25 | CC1OC(OC2CCC3(C)C(CCC4(C)C3C=CC35OCC6(CCC(C)(C)CC63)C(O)CC45C)C2(C)CO)C(O)C(OC2OC(CO)C(O)C(O)C2O)C1O (stereo not drawn)
9.51 | CC(C)=CCCC(C)(OC1OC(CO)C(O)C(O)C1O)C1CCC2(C)C1C(O)CC1C3(C)CCC(O)C(C)(C)C3CCC12C (stereo not drawn)
4 | O=C(O)C1OC(OC2C(Oc3cc(O)c4c(=O)cc(-c5ccc(O)c(O)c5)oc4c3)OC(C(=O)O)C(O)C2O)C(O)C(O)C1O (stereo not drawn)
4.85 | O=C(CCc1ccccc1)c1c(O)cc(O)cc1OC1OC(CO)C(O)C(O)C1O (stereo not drawn)
4.65 | CC1CCC2C(C)C3C(CC4C5CC=C6CC(OC7OC(CO)C(O)C(OC8OC(CO)C(O)C(O)C8O)C7O)CCC6(C)C5CCC43C)N2C1 (stereo not drawn)
4.6 | O=C(C=Cc1ccc(O)c(O)c1)OC1C(O)CC(O)(C(=O)O)CC1O (stereo not drawn)
5.21 | O=C(C=Cc1ccc(O)cc1)OCC1OC(Oc2c(-c3ccc(O)cc3)oc3cc(O)cc(O)c3c2=O)C(O)C(O)C1O (stereo not drawn)
6.73 | CC1OC(OC2C(OC3C(OC4CCC5(C)C(CCC6(C)C5CC=C5C7CC(C)(C)CC(OC(=O)CC(=O)O)C7(C)CCC56C)C4(C)CO)OC(C(=O)O)C(O)C3O)OC(CO)C(O)C2O)C(O)C(O)C1O (stereo not drawn)
4.05 | O=C(O)C1OC(OC2C(Oc3cc(O)c4c(=O)cc(-c5ccc(O)cc5)oc4c3)OC(C(=O)O)C(O)C2O)C(O)C(O)C1O (stereo not drawn)
3.98 | CC1OC(OC2C(O)C(C)OC(OCC3OC(Oc4c(-c5ccc(O)cc5)oc5cc(O)cc(O)c5c4=O)C(O)C(O)C3O)C2O)C(O)C(O)C1O (stereo not drawn)
8.16 | CC(=O)OC1CCC2(C)C(=CCC3C2CCC2(C)C3CC3OC4(CCC(C)CN4)C(C)C32)C1 (stereo not drawn)
7.06 | CC1OC(OC2C(OC3C(OC4CCC5(C)C(CCC6(C)C5CC=C5C7CC(C)(C)CC(O)C7(C)CCC56C)C4(C)CO)OC(C(=O)O)C(O)C3O)OC(C(=O)O)C(O)C2O)C(O)C(O)C1O (stereo not drawn)
3.88 | CC(=O)OC1CC(COC2OC(CO)C(O)C(O)C2O)CNC12OC1CC3C4CCC5CC(OC6OC(CO)C(OC7OC(CO)C(OC8OC=C(O)C(O)C8O)C(O)C7OC7OC(CO)C(O)C(O)C7O)C(O)C6O)CCC5(C)C4CCC3(C)C1C2C (stereo not drawn)
4.19 | COc1cc(C=CC(=O)OCC2OC(OC3C(c4c(O)cc5oc(-c6ccc(O)c(OC)c6)cc(=O)c5c4O)OC(CO)C(O)C3O)C(O)C(O)C2O)ccc1O (stereo not drawn)
3.13 | O=C(C=Cc1ccc(O)c(O)c1)OC1CC(O)(C(=O)O)CC(O)C1O (stereo not drawn)
3.81 | O=C(C=Cc1ccc(O)cc1)OCC1OC(OC2C(c3c(O)cc4oc(-c5ccc(O)c(O)c5)cc(=O)c4c3O)OC(CO)C(O)C2O)C(O)C(O)C1O (stereo not drawn)
5.71 | CC1CCC2(OC1O)OC1CC3C4CC=C5CC(OC6OC(CO)C(OC7OC(C)C(O)C(O)C7O)C(O)C6OC6OC(C)C(O)C(O)C6O)CCC5(C)C4CCC3(C)C1C2C (stereo not drawn)
1.98 | CCC(C)C(N)C(=O)NC(CCC(=O)O)C(=O)O (stereo not drawn)
3.74 | COc1cc(C=CC(=O)OC2C(O)CC(O)(C(=O)O)CC2O)ccc1O (stereo not drawn)

LC retention time [min] | Compound
2.33 | O=C(O)C(Cc1ccccc1)NCC1(O)OC(CO)C(O)C1O (stereo not drawn)
3.54 | COc1cc(C=CC(=O)OC2OC(CO)C(O)C(O)C2O)cc(OC)c1O (stereo not drawn)
3.2 | C=CC1C(OC2OC(CO)C(O)C(O)C2O)OC=C2C(=O)OCCC21O (stereo not drawn)
4.99 | CC(CCC1(O)OC2CC3C4CC=C5CC(OC6OC(CO)C(O)C(OC7OC(CO)C(O)C(O)C7O)C6OC6OC(C)C(O)C(O)C6O)CCC5(C)C4CCC3(C)C2C1C)COC1OC(CO)C(O)C(O)C1O (stereo not drawn)
6.59 | CC(C)=CCCC(C)(OC1OC(CO)C(O)C(O)C1O)C1CCC2(C)C1C(O)CC1C3(C)CCC(O)C(C)(C)C3C(O)CC12C (stereo not drawn)
4.01 | CC1=C2C(=O)C3C(CC=C4CC(OC5OC(CO)C(O)C(O)C5O)CCC43C)C2CCC12OC1CC(C)CNC1C2C (stereo not drawn)
7.79 | CC1=C(O)C(=O)CC(OC2CC(C)(C)CC3C4=CCC5C6(C)CCC(OC7OC(C(=O)O)C(O)C(O)C7OC7OCC(O)C(O)C7OC7OC(C)C(O)C(O)C7O)C(C)(CO)C6CCC5(C)C4(C)CCC23C)O1 (stereo not drawn)
1.83 | CC=CS(=O)CC(NC(=O)CCC(NCC1(O)OCC(O)C(O)C1O)C(=O)O)C(=O)O (stereo not drawn)
5.68 | CC1OC(OC2C(OC3C(OC4CCC5(C)C(CCC6(C)C5CC=C5C7CC(C)(C)C(OC8OC(C)C(O)C(O)C8O)CC7(C)CCC56C)C4(C)CO)OC(C(=O)O)C(O)C3O)OC(C(=O)O)C(O)C2O)C(O)C(O)C1O (stereo not drawn)
4.55 | CCCCCCCCCCCCC(O)C(O)C(COC1OC(CO)C(O)C(O)C1O)NC(C)=O (stereo not drawn)
2.4 | CC(CSCC(NC(=O)CCC(NCC1(O)OCC(O)C(O)C1O)C(=O)O)C(=O)NCC(=O)O)C(=O)O (stereo not drawn)
5.56 | C=CC1C(OC2OC(CO)C(O)C(O)C2O)OC=C2C(=O)N3CCc4c([nH]c5ccccc45)C3CC21 (stereo not drawn)
3.67 | COc1cc(CC(COC2OC(CO)C(O)C(O)C2O)C(COC2OC(CO)C(O)C(O)C2O)Cc2ccc(O)c(OC)c2)ccc1O (stereo not drawn)
5.59 | CC1=C(CCC(C)COC2OC(CO)C(O)C(O)C2O)OC2CC3C4CC=C5CC(O)CC(OC6OCC(O)C(O)C6OC6OC(C)C(O)C(O)C6O)C5(C)C4CCC3(C)C12 (stereo not drawn)
4.48 | CC1OC(OC2C(c3c(O)cc4oc(-c5ccc(O)c(O)c5)cc(=O)c4c3O)OC(CO)C(O)C2O)C(O)C(O)C1O (stereo not drawn)
4.13 | C=CC1C(OC2OC(CO)C(O)C(O)C2O)OC=C(C(=O)OC)C1CC1NC(C(=O)O)Cc2c1[nH]c1ccccc21 (stereo not drawn)
2.35 | O=C(C=Cc1ccc(O)cc1)Oc1cc(O)c2c(=O)c(OC3OC(CO)C(O)C(O)C3O)c(-c3ccc(O)cc3)oc2c1 (stereo not drawn)
3.71 | COc1cc(C=CC(=O)OC2CC(O)(C(=O)O)CC(O)C2O)ccc1O (stereo not drawn)
4.5 | CCC12CCCN3CCc4c(n(c5ccccc45)C(O)(C(=O)OC)C1)C32 (stereo not drawn)
7.33 | CC1(C)CCC2(C(=O)O)C(O)CC3(C)C(=CCC4C5(C)CCC(OC6OC(CO)C(O)C(O)C6O)C(C)(C)C5CCC43C)C2C1 (stereo not drawn)
